{"source": "patent US8575145B2", "about": "“Triazolopyridine compounds as PIM kinase inhibitors” (Array BioPharma Inc., priority 2008, dated 2013)", "assay_type_in_all_cases": "in vivo, mouse", "key": {"[1]": {"tested_on": "C57BL/6 recipient mice, adoptive transfer EAE model", "experiment": "Adoptive Transfer Experimental Autoimmune Encephalomyelitis", "conditions": "200 mg/kg oral gavage twice daily for 26 days", "procedure": "Having observed that compounds of Formula I inhibit T cell activation in vitro and in vivo, the effect of a compound of Formula I on an autoimmune disease induced by T cells was determined using an adoptive transfer EAE model, an animal model of human multiple sclerosis (Brain (2006), 129, 1953-1971). This model relies on the injection of T cells from animals with EAE into disease-free host animals. This injection of cells is known to those skilled in the art as adoptive transfer. By injecting the animals with activated, encephalogenic T cells, this model is focused on the pathogenic stage of EAE autoimmune disease. On Day-14, C57BL/6 mice (Taconic Farms; 10 weeks old) were immunized with a disease-causing protein, MOG(35-55) peptide in complete Freund's adjuvant (Hooke Laboratories, catalog #EK-0113). On Day -3, spleens were harvested, single cell suspensions were prepared and then 5,000,000 cells/mL were stimulated with 20 μg/mL MOG(33-55) peptide (Open Biosystems), 30 ng/mL IL-12 (R&D Systems catalog #419-ML-010), 10 μg/mL anti-IFNγ antibody (BD Biosciences catalog #554408) at 37° C., 5% CO2. On Day 0, 1,500,000 of these cells were injected intravenously into the tail veins of C57BL/6 recipient mice. […] The recipient mice were scored daily days 0 through 26 using the following clinical scoring system: […]"}, "[2]": {"tested_on": "C57BL/6J mice, MOG-induced EAE", "experiment": "MOG(35-55)-induced Experimental Autoimmune Encephalomyelitis", "conditions": "200 mg/kg oral gavage twice daily, days 7 through 27; vehicle and untreated 3.0", "procedure": "To further determine the effect of compounds of Formula I on an autoimmune disease associated with T cells and cytokines, a MOG-induced experimental autoimmune encephalomyelitis (EAE) experiment was performed. MOG-induced EAE is an animal model of human multiple sclerosis (Brain (2006), 129, 1953-1971).\nOn Day 0, C57BL/6J mice (Jackson Laboratories #000664, 6-8 weeks of age) were injected subcutaneously with 100 μL of complete Freund's adjuvant (CFA) prepared as a 1:1 emulsion of (a) incomplete Freund's adjuvant (Difco, catalog #263910) containing 8 mg/mL m. tuberculosis H37RA (Difco, catalog #231141) and (b) phosphate buffered saline (PBS) containing 1 mg/mL MOG(35-55) peptide (California Peptide Research Inc). On the day 0 and 2, mice were injected intravenously with 200 ng of pertussis toxin (List Biological Laboratories, catalog #181). On day 7, the mice were randomized into treatment groups which received vehicle (distilled water) or the compound of Example 26 (200 mg/kg) administered by oral gavage twice daily from days 7 through 27.\nThe mice were scored daily on days 7 through 37 using the following clinical scoring system:\n1.5—unsteady gait, mild hind limb ataxia\n2.0—partial hind limb paralysis (hind limbs carrying weight)\n2.5—partial hind limb paralysis (hind limbs not carrying weight)\n3.0—full hind limb paralysis\n3.5—full hind limb paralysis and partial front limb paralysis"}, "MRL/MpJ-Fas<lpr> mice": {"tested_on": "MRL/MpJ-Fas<lpr> mice", "experiment": "MRL/lpr Lupus Model", "conditions": "200 mg/kg twice daily", "source_text": "MRL/lpr is considered to be an animal model of systemic lupus erythematosus (SLE), an autoimmune disease (Cohen and Maldonado 2003, Current Protocols in Immunology Chapter 15, Unit 15.20). MRL/lpr mice have a defect in the apoptosis of activated lymphocytes and over time develop a spontaneous and severe lymphoproliferative disorder characterized by enlarged lymphoid organs, auto-antibody production and kidney disease resulting in proteinuria. […] To determine the effect of compounds of Formula I in this model of SLE, the following experiment was conducted.\nMRL/MpJ-Fasand age-matched MRL/MpJ control mice (Jackson Laboratories, catalog #000485 and #000486, respectively) were treated once daily with vehicle (1% CMC/0.5% Tween 80) or twice daily with the compound of Example 26 (200 mg/kg) for 10 weeks. Body weights, lymphadenopathy and urine protein levels were monitored weekly. Urine protein levels were determined with Bayer Albustix dipsticks (Bayer catalog #2191) and scored according to the following scale:\nSerum levels of anti-ds-DNA antibody were measured by ELISA (Alpha Diagnostic, catalog #5120) on Day 28 and upon study termination. ELISA plates were quantitated using a Molecular Devices Versamax plate reader at […] and titers calculated relative using to a standard curve using a 4-parameter curve fit with Softmax Pro software."}}, "note": "Structures can show the parent of a compound that is named as a salt.", "data": [{"smiles": "F[C@@H]1CNCCC1Oc1cccc2ccc(-c3nnc4ccccn34)nc12", "note": "(stereo in doubt) [Example 26, 2-([1,2,4]triazolo[4,3-a]pyridin-3-yl)-8-((cis)-3-fluoropiperidin-4-yloxy)quinoline dihydrochloride]", "values": [{"measurement": "disease onset (first of 2 consecutive days with clinical score >= 1)", "setting": "[1]", "result": "significant delay in disease onset"}, {"measurement": "median day of onset", "setting": "[1]; untreated and vehicle groups day 6", "result": 11, "unit": "days"}, {"measurement": "median maximal clinical score", "setting": "[2]", "result": 1.5}, {"measurement": "proteinuria over time", "setting": "MRL/MpJ-Fas<lpr> mice; 10 weeks, relative to vehicle control", "result": "prevents the development of proteinuria"}, {"measurement": "decrease in serum anti-dsDNA relative to vehicle control", "setting": "MRL/MpJ-Fas<lpr> mice; 28 days", "result": 74, "unit": "%"}, {"measurement": "decrease in serum anti-dsDNA antibodies relative to vehicle control", "setting": "MRL/MpJ-Fas<lpr> mice; study termination (79 days of dosing)", "result": 99, "unit": "%"}]}]}
